Experimental data from patent US11963533B2 (priority 2017, dated 2024).
Numbering of substitutions follows the chain as printed. Like-named read-outs stand apart in the source and are kept apart here.

B1: CghSAMPa: stable antimicrobial peptide from Eremocitrus glauca x citrus sp., SEQ ID NO: 1, expressed and purified in E. coli (protein)
chain: MCCNRGKNVSIENLHQGFTHIFESTFESTEGVAEYVSHPSHVEYANLFLANLEKVLVIDYKPTTVRV
B2: CghSAMPb: stable antimicrobial peptide from Eremocitrus glauca x citrus sp., SEQ ID NO: 2, expressed and purified in E. coli (protein)
chain: B1 chain with T19P, I21L, S24F, S40A

How the values were obtained:
[1] = tested on: C. Las (Candidatus Liberibacter asiaticus); assay type: in vivo; conditions: HLB-positive citrus plants, trunk delivery
[2] = tested on: C. Lso (Ca. L. solanacearum); assay type: in vivo, Candidatus Liberibacter solanacearum
[3] = tested on: C. Lso (Ca. L. solanacearum); assay type: in vivo, Candidatus Liberibacter solanacearum; remark: listed apart in the source
sweet orange leaves = conditions: in vivo
Ca. L. solanacearum = assay type: in vivo, Candidatus Liberibacter solanacearum; conditions: 30 μM peptide by stem injection; for growth of infected plants compared to mock treatment: Ca. L. solanacearum-infected Nb plants, 3 weeks of treatment, FIG. 3A; for bacterial titer compared to plants treated with mock solution: Ca. L. solanacearum-infected plants, FIGS. 3B and 7

| Molecule | bacteria detected in the treated trees [1] | reduction of bacterial titer of treated trees ([1]; FIG. 4: 100 nM or 10 μM once, 5 weeks) | symptoms of new shoots and leaves from the treated trees ([1]; mock treated plants still have yellow patch symptoms) | disease symptom ([2]; C. Lso-infected potato, FIG. 5) | yield of tuber production ([2]; C. Lso-infected potato, FIG. 5) | plant growth after C. Lso infection ([2]; potato plants pre-treated with SAMP 10 μM vs mock, exposed to C. Lso positive potato psyllids 5 days, 3 weeks post infection) | disease symptom ([3]; C. Lso-infected tomato, FIG. 6) | plant growth after C. Lso infection ([3]; tomato plants pre-treated with SAMP vs mock, exposed to C. Lso positive potato psyllids 5 days, 4 weeks post infection) | cell death in leaves (sweet orange leaves) | time to complete digestion by pepsin (human protease pepsin) [min] | growth of infected plants compared to mock treatment (Ca. L. solanacearum) | bacterial titer compared to plants treated with mock solution (Ca. L. solanacearum) |
| --- | --- | --- | --- | --- | --- | --- | --- | --- | --- | --- | --- | --- |
| SAMP | No bacteria were detected | 30-100 folds | no longer symptomatic | clearly inhibited | increased | grew better | largely reduced | grew better | No cell death | ≤ 45 |  |  |
| B1 |  |  |  |  |  |  |  |  |  |  | grow much better | much lower |
| B2 |  |  |  |  |  |  |  |  |  |  | grow much better | much lower |
